The test system of the first assay is pERK in NCI-H358 cells. The experiment in a line: Cell-based pERK HTRF assay (pERK inhibition in H358 cells). The conditions noted are these: Homo sapiens, NCI-H358, 0.5 h, pERK inhibition IC50, NCI-H358 cells, 30 min incubation; read-out: PERK in H358 cell.
Take `C=CC(=O)N1CC(Nc2nc(OC[C@@H]3CCCN3C)nc3c(F)c(-c4ccc(F)c5sc(N)nc45)c(Cl)cc23)C1` [Compound 23, 1-(3-((7-(2-amino-7-fluorobenzo[d]thiazol-4-yl)-6-chloro-8-fluoro-2-(((S)-1-methylpyrrolidin-2-yl)methoxy)quinazolin-4-yl)amino)azetidin-1-yl)prop-2-en-1-one]: the IC50 was greater than 1000 nM.

On to `C=CC(=O)N1CC[C@@H](N(C)c2nc(OC[C@@]34CCCN3C[C@H](F)C4)nc3c(F)c(-c4ccc(F)c5sc(N)c(C#N)c45)ccc23)C1` [Compound 311], for which the IC50 is less than 100 nM. Consider `C=CC(=O)N1CC[C@@H](N(C)c2nc(OC[C@@]34CCCN3C[C@H](F)C4)nc3c(F)c(-c4ccc(F)c5sc(N)c(C#N)c45)c(C(F)(F)F)cc23)[C@@H]1C` [Compound 469], for which the IC50 is less than 100 nM. As for `C=CC(=O)N1CC[C@@H](N(CC)c2ncnc3c(F)c(-c4ccc(F)c5sc(N)nc45)c(C(F)(F)F)cc23)C1` [Compound 248], the IC50 was 100 to 1000 nM.

As for `C=CC(=O)N1CCC(N(C)c2nc(OC[C@@]34CCCN3C[C@H](F)C4)nc3cc(-c4ccc(F)c5sc(N)c(C#N)c45)ccc23)[C@H]1COC` (stereo partly drawn) [Compound 389, 4-(4-((1-acryloyl-2-(methoxymethyl)pyrrolidin-3-yl)(methyl)amino)-2-(((2R,7aS)-2-fluorotetrahydro-1H-pyrrolizin-7a(5H)-yl)methoxy)quinazolin-7-yl)-2-amino-7-fluorobenzo[b]thiophene-3-carbonitrile], the IC50 was less than 100 nM. With `C=CC(=O)N1CCC(N(C)c2nc(OC[C@@H]3C[C@@H](OC)CN3C)nc3c(F)c(-c4ccc(F)c5sc(N)c(C#N)c45)c(C(F)(F)F)cc23)[C@H]1COC` (stereo partly drawn) [Compound 454], the IC50 is less than 100 nM. Same read-out and setting: with `C=CC(=O)N1C[C@@H](F)[C@@H](N(C)c2nc(OCC34CCCN3CCC4)nc3cc(-c4ccc(F)c5sc(N)c(C#N)c45)c(C(F)(F)F)cc23)C1` [Compound 369] the figure was less than 100 nM. With `C=CC(=O)N1C[C@H](C)N(c2nc(OC[C@@H]3CCCN3C)nc3c(F)c(-c4ccc(F)c5sc(N)c(C#N)c45)c(C(F)(F)F)cc23)C[C@H]1C` [Compound 363, 4-(4-((2S,5R)-4-acryloyl-2,5-dimethylpiperazin-1-yl)-8-fluoro-2-(((S)-1-methylpyrrolidin-2-yl)methoxy)-6-(trifluoromethyl)quinazolin-7-yl)-2-amino-7-fluorobenzo[b]thiophene-3-carbonitrile], the IC50 was less than 100 nM. Take `C=CC(=O)N1CC(Nc2nc(OCC34CCCN3CCC4)nc3c(F)c(-c4ccc(F)c5sc(N)nc45)c(-c4ccoc4)cc23)C1` [Compound 70, 1-(3-((7-(2-amino-7-fluorobenzo[d]thiazol-4-yl)-8-fluoro-6-(furan-3-yl)-2-((tetrahydro-1H-pyrrolizin-7a(5H)-yl)methoxy)quinazolin-4-yl)amino)azetidin-1-yl)prop-2-en-1-one]: the IC50 is greater than 1000 nM.

As for `C=CC(=O)N1CC[C@@H](N(C)c2nc(OC[C@@]34CCCN3C[C@H](F)C4)nc3c(F)c(-c4ccc(F)c5sc(C(F)F)nc45)c(C(F)(F)F)cc23)C1` [Compound 310], the IC50 was greater than 1000 nM.

As for `C=C(F)C(=O)N1CCN(c2nc(OC[C@@]34CCCN3C[C@H](F)C4)nc3c(F)c(-c4ccc(F)c5sc(N)nc45)c(C(F)(F)F)cc23)C[C@H]1C` [Compound 208], the IC50 fell in the range of 100 to 1000 nM. The same measure, in the same setting: with `C=CC(=O)N1CCC(N(C)c2nc(OC[C@@H]3C[C@@H](F)CN3C)nc3c(F)c(-c4ccc(F)c5sc(N)c(C#N)c45)c(C(F)(F)F)cc23)[C@H]1C` (stereo partly drawn) [Compound 399] the figure was less than 100 nM; with `C=CC(=O)N1C[C@H](C)N(c2nc(OCC34CCCN3CCC4)nc3c(F)c(-c4ccc(F)c5sc(N)nc45)c(C(F)(F)F)cc23)C[C@H]1C` [Compound 281], less than 100 nM. On to `C=CC(=O)N1CC[C@@H](N(C)c2nc(OC[C@@]34CCCN3C[C@H](F)C4)nc3c(F)c(-c4ccc(F)c5sc(N)c(C#N)c45)c(C(F)(F)F)cc23)[C@H]1CF` [Compound 337], for which the IC50 was less than 100 nM.

As for `C=CC(=O)N1CC[C@H](N(C)c2nc(OC[C@@]34CCCN3C[C@H](F)C4)nc3c(F)c(-c4ccc(F)c5sc(N)c(C#N)c45)c(C(F)(F)F)cc23)[C@@H]1C` (single isomer, unassigned) [Compound 472], the IC50 was less than 100 nM. On the same count and under the same terms, for `C=CC(=O)N1CCC(N(C)c2nc(OC[C@@]34CCCN3C[C@H](F)C4)nc3cc(-c4ccc(F)c5sc(N)c(C#N)c45)c(C#N)cc23)[C@H]1C` (stereo partly drawn) [Compound 387, 4-((1-acryloyl-2-methylpyrrolidin-3-yl)(methyl)amino)-7-(2-amino-3-cyano-7-fluorobenzo[b]thiophen-4-yl)-2-(((2R,7aS)-2-fluorotetrahydro-1H-pyrrolizin-7a(5H)-yl)methoxy)quinazoline-6-carbonitrile] the value was less than 100 nM. Consider `CC#CC(=O)N1CCN(c2nc(OCC34CCCN3CC(F)(F)C4)nc3c(F)c(-c4ccc(F)c5sc(N)nc45)c(C(F)(F)F)cc23)CC1` (stereo not drawn) [Compound 193], for which the IC50 is greater than 1000 nM. In the case of `CC#CC(=O)N1CCN(c2nc(OC[C@]34CCCN3C[C@H](F)C4)nc3c(F)c(-c4ccc(F)c5sc(N)nc45)c(C(F)(F)F)cc23)CC1` [Compound 149], the IC50 was less than 100 nM. As to `C=CC(=O)N1C[C@H](N(C)c2nc(OC[C@@]34CCCN3C[C@H](F)C4)nc3cc(-c4ccc(F)c5sc(N)nc45)c(C(F)(F)F)cc23)C[C@H]1C` [Compound 309], the IC50 is less than 100 nM. In the case of `C=CC(=O)N1C[C@@H](F)[C@@H](N(C)c2nc(OC[C@@]34CCCN3C[C@H](F)C4)nc3cc(-c4ccc(F)c5sc(N)c(C#N)c45)c(C#N)cc23)C1` [Compound 372], the IC50 was less than 100 nM.

Consider `C=CC(=O)N1C[C@H](C)N(c2nc(OC[C@@H]3CC4(CC4)CN3C)nc3c(F)c(-c4ccc(F)c5sc(N)c(C#N)c45)c(C(F)(F)F)cc23)C[C@H]1C` [Compound 410, 4-(4-((2S,5R)-4-acryloyl-2,5-dimethylpiperazin-1-yl)-8-fluoro-2-(((S)-5-methyl-5-azaspiro[2.4]heptan-6-yl)methoxy)-6-(trifluoromethyl)quinazolin-7-yl)-2-amino-7-fluorobenzo[b]thiophene-3-carbonitrile], for which the IC50 was less than 100 nM. As for `C=CC(=O)N1CCC(N(C)c2nc(OC[C@@H]3CCCN3C)nc3cc(-c4ccc(F)c5sc(N)c(C#N)c45)c(F)cc23)[C@H]1COC` (stereo partly drawn) [Compound 441], the IC50 fell in the range of 100 to 1000 nM.

As to `C=CC(=O)N1CCC(N(C)c2nc(OC[C@@H]3C[C@@H](OC)CN3C)nc3c(F)c(-c4ccc(F)c5sc(N)c(C#N)c45)ccc23)[C@H]1COC` (stereo partly drawn) [Compound 424], the IC50 is less than 100 nM. Same read-out and setting: for `C=CC(=O)N1CC[C@@H](N(C)c2nc(OC)nc3c(F)c(-c4ccc(F)c5sc(N)c(C#N)c45)c(C(F)(F)F)cc23)C1` [Compound 384] the value was less than 100 nM. In the case of `C=CC(=O)N1CCC(N(C)c2nc(OC[C@@H]3CC4(CC4)CN3C)nc3c(F)c(-c4ccc(F)c5sc(N)c(C#N)c45)ccc23)[C@H]1C` (stereo partly drawn) [Compound 436], the IC50 was less than 100 nM. As for `C=CC(=O)N1CC(N(C)c2nc(OC[C@@H]3CC(F)(F)CN3C)nc3c(F)c(-c4ccc(F)c5sc(N)nc45)c(C(F)(F)F)cc23)C1` [Compound 181], the IC50 was greater than 1000 nM. `C=CC(=O)N1CCN(c2nc(OC[C@]34CCCN3C[C@H](F)C4)nc3c(F)c(-c4ccc(F)c5sc(N)nc45)c(C(F)(F)F)cc23)[C@H](C)C1` [Compound 196]: the IC50 is less than 100 nM. In the case of `C=CC(=O)N1CC(N(CC)c2nc(OC[C@]34CCCN3C[C@H](F)C4)nc3c(F)c(-c4ccc(F)c5sc(N)nc45)c(C(F)(F)F)cc23)C1` [Compound 206], the IC50 fell in the range of 100 to 1000 nM. As to `C=CC(=O)N1CC(N(c2nc(OCC34CCCN3CCC4)nc3c(F)c(-c4ccc(F)c5sc(N)nc45)c(Cl)cc23)C2CC2)C1` [Compound 151], the IC50 was greater than 1000 nM. On the same count and under the same terms, with `C=CC(=O)N1CCC(N(C)c2nc(OC[C@@H]3C[C@@H](F)CN3C)nc3c(F)c(-c4ccc(F)c5sc(N)c(C#N)c45)c(Cl)cc23)[C@H]1C` (stereo partly drawn) [Compound 449] the figure was 100 to 1000 nM. With `C=CC(=O)N1CC[C@@H](N(C)c2nc(OC[C@@]34CCCN3C[C@H](F)C4)nc3c(F)c(-c4ccc(F)c5sc(N)nc45)c(OC(F)(F)F)cc23)C1` [Compound 238, 1-((3R)-3-((7-(2-amino-7-fluorobenzo[d]thiazol-4-yl)-8-fluoro-2-(((2R,7aS)-2-fluorotetrahydro-1H-pyrrolizin-7a(5H)-yl)methoxy)-6-(trifluoromethoxy)quinazolin-4-yl)(methyl)amino)pyrrolidin-1-yl)prop-2-en-1-one], the IC50 was in the range of 100 to 1000 nM.

For `C=CC(=O)N1CCC(N(C)c2nc(OCCO)nc3c(F)c(-c4ccc(F)c5sc(N)c(C#N)c45)ccc23)[C@H]1C` (stereo partly drawn) [Compound 468], the IC50 fell in the range of 100 to 1000 nM.

Turning to `C=CC(=O)N1CC[C@@H](N(C)c2nc(OC[C@@]34CCCN3C[C@H](F)C4)nc3c(F)c(-c4ccc(F)c5sc(N)c(C#N)c45)ccc23)[C@H]1C` [Compound 358, 4-(4-(((2R,3R)-1-acryloyl-2-methylpyrrolidin-3-yl)(methyl)amino)-8-fluoro-2-(((2R,7aS)-2-fluorotetrahydro-1H-pyrrolizin-7a(5H)-yl)methoxy)quinazolin-7-yl)-2-amino-7-fluorobenzo[b]thiophene-3-carbonitrile], the IC50 was less than 100 nM. Turning to `C=CC(=O)N1CCC(N(CC)c2nc(OC[C@@]34CCCN3C[C@H](F)C4)nc3cc(-c4ccc(F)c5sc(N)c(C#N)c45)ccc23)[C@H]1COC` (stereo partly drawn) [Compound 440], the IC50 lay in the range of 100 to 1000 nM. Still for that read-out and setting: with `C=CC(=O)N1CC[C@@H](N(C)c2nc(OC[C@@]34CCCN3C[C@H](F)C4)nc3c(F)c(-c4ccc(F)c5sc(N)c(C#N)c45)c(C(F)(F)F)cc23)[C@H]1C` [Compound 381, 4-(4-(((2R,3R)-1-acryloyl-2-methylpyrrolidin-3-yl)(methyl)amino)-8-fluoro-2-(((2R,7aS)-2-fluorotetrahydro-1H-pyrrolizin-7a(5H)-yl)methoxy)-6-(trifluoromethyl)quinazolin-7-yl)-2-amino-7-fluorobenzo[b]thiophene-3-carbonitrile] the figure was less than 100 nM.

Still in this assay, the particulars now being: pERK inhibition IC50, NCI-H358 cells, 30 min incubation; read-out: PERK in H358 cell.
Consider `C=CC(=O)N1CCC[C@@H](N(C)c2nc(OC[C@@]34CCCN3C[C@H](F)C4)nc3c(F)c(-c4ccc(F)c5sc(N)nc45)c(C(F)(F)F)cc23)C1` [Compound 244], for which the IC50 was less than 100 nM.
